For orientation: IC50 means the concentration that gives 50% inhibition.

This is an account of results in patent US20240018136A1, “CDK Inhibitors And Their Use As Pharmaceuticals” (Prelude Therapeutics, Incorporated, priority 2022, published 2024).

The target of assay [1] is T1, CDK4/Cyclin D1 (Homo sapiens, UniProt P11802).
T1 construct: purchased ProQinase; host or cells: insect cell
Description: CDK4/CyclinD1 enzymatic activity assay (TR-FRET). Format: biochemical. As to conditions: ATP 2 mM final, read-out: CDK4_D1 IC50. The method, then: CDK4/CyclinD1 Enzymatic Activity Assay
(§1) The inhibitory activity of compounds was evaluated in vitro using TR-FRET assay with white 384-well low volume microplate (Greiner Bio-One). CDK4/Cyclin D1 catalyzed phosphorylation of peptide in the presence and absence of compounds was measured and used in IC5 determination. Recombinant protein complex CDK4/Cyclin D1, expressed from insect cell, was purchased from ProQinase. Testing compounds were dissolved in DMSO at 1 mM and tested in 9-dose IC50 mode. The reaction mixture was prepared by mixing CDK4/CyclinD1 (1 nM final), ULight-4E-BP1 (100 nM final, Perkinelmer, TRF0128-D), and ATP (2 mM final) in assay buffer (20 mM of HEPES pH 7.4, 1 mM of EGTA, 0.05% BSA, 0.005% Tween 20, and 1 mM TCEP). The compound of interest in DMSO was added to each well in 3-fold serial dilution by dispenser (TECAN D300E) to make a 9.9 μL of reaction mixture. After 20 minutes preincubation at room temperature, 0.1 μL MgCl2 (10 mM final) was added to initiate the reaction. Following a 45 minute incubation at 37° C., the reaction was stopped by addition of 2 μL of quenching buffer consisting of Lance detection buffer (Perkinelmer CR97-100C), LANCE Ultra Europium-anti-P-4E-BP1 (Perkinelmer, TRF0216-D), EDTA, and incubate at room temperature for an additional 60 minutes in the dark. The reaction signal was measured by Envision multimode plate reader (PerkinElmer, 2102-0010). IC50 values were determined by fitting the data to the standard 4 parameters with Hill Slope using GraphPad Prism software.
Background: TR-FRET usually uses a lanthanide donor and a delayed reading to cut background.

The subject of assay [2] is OVCAR3 p-RB. Kind of assay: pRB ICW assay in OVCAR3 cells. Format: cell-based. As to conditions: Homo sapiens, OVCAR-3, incubated with compound for 2 hours. The protocol:
pRB ICW Assay in OVCAR3 Cells
OVCAR3 cells were maintained in RPMI (Corning, Catalog #: 10-040-CV) supplemented with 10% v/v FBS (Gibco, Catalog #: 26140-079), 1% v/v Penicillin Streptomycin (Gibco, Catalog #15140-122.) OVCAR3 cells grown at log phase were trypsinized, counted, and resuspended in fresh medium to reach a final density of 6.7e4 cells/mL and 75 μL of culture were dispensed into a 384-well plate (Falcon, cat #353962) using Multidrop Combi dispenser (Thermo Scientific). The next day, compounds were dispensed as a 9-point, ½ log serial dilution using a Tecan digital dispenser (D300e), and cells were incubated with compound for 2 hours in a humidified incubator at 37° C. A reference compound at a final concentration of 10 μM was used as a control for maximum inhibition. Each compound was tested in duplicates in each experiment. At the end of the incubation, 25 μL of 16% paraformaldehyde (Electron Microscopy, cat #15710) was slowly added to each well and the plate was incubated at room temperature (RT) for 30 minutes to fix cells. Cells were then permeabilized by incubating with 50 μL/well of wash buffer (lx PBS with 0.1% Triton X-100) 5×5 minutes, followed by 1 hour blocking with 30 μL/well of Odyssey blocking buffer (Li-COR, cat #927-40000), all at RT. Anti-phosphor RB antibody (Cell signaling 8516S) was diluted 1:1000 in Odyssey blocking buffer and 20 μL was added to all wells and incubated overnight in 4° C. with gently rocking. The next day, cells were washed 5×5 min with 50 μL/well of wash buffer, followed with 1 hour incubation with secondary antibody and DRAQ5 diluted in Odyssey blocking buffer (1:500 dilution for secondary antibody and 1:2000 dilution for DRAQ5), 5×5 min washes, and one last wash with water. Plates were dried in 37° C. oven for 5 min and scanned using Li-COR Odyssey CLx imaging system to acquire intensities at 700 and 800 nm channels.

The target in assay [3] is CDK2/Cyclin E2 (Homo sapiens, UniProt P24941). Description: CDK2/CyclinE2 enzymatic activity assay (TR-FRET). It is filed as biochemical. As to conditions: ATP 1 mM final, read-out: CDK2_E1 IC50. The protocol:
CDK2/CyclinE2 Enzymatic Activity Assay
as §1, with “Bio-One). CDK2/Cyclin E2” for “Bio-One). CDK4/Cyclin D1”, “in IC50” for “in IC5”, “complex CDK2/Cyclin E2,” for “complex CDK4/Cyclin D1,”, “mixing CDK2/CyclinE2” for “mixing CDK4/CyclinD1”, “ULight-4E-BP1 (50” for “ULight-4E-BP1 (100”, “ATP (1” for “ATP (2”

Molecules are shown by their SMILES.

T1 sequence (P11802 whole entry): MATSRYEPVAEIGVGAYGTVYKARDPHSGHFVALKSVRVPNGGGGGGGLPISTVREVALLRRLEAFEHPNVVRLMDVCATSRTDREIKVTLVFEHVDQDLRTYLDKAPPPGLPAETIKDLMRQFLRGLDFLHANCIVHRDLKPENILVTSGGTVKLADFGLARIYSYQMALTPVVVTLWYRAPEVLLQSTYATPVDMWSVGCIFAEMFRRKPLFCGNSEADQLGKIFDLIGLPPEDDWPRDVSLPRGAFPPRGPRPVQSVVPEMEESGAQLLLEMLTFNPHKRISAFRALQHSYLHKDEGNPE
T1 sequence (P24385 whole entry partner): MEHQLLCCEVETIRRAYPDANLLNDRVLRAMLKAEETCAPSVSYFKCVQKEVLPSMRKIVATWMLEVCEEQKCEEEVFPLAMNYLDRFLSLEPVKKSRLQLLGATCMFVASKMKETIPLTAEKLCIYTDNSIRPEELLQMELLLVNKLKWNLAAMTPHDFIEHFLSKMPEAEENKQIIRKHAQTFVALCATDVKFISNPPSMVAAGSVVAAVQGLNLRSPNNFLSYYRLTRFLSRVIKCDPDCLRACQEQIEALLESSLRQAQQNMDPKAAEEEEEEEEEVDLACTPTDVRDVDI

Turning to `Cc1cc(C(C)O)ccc1-c1ncc(-c2nc(NC3CCN(S(C)(=O)=O)CC3)ncc2C(F)(F)F)s1` (stereo not drawn) [Example 7, 1-[3-Methyl-4-[5-[2-[(1-methylsulfonylpiperidin-4-yl)amino]-5-(trifluoromethyl)pyrimidin-4-yl]-1,3-thiazol-2-yl]phenyl]ethanol], the IC50 in assay [1] was no more than 100 nM; in assay [2], 100 to 1000 nM; in assay [3], no more than 100 nM.
Consider `Cc1cc(C(C)(C)O)ccc1-c1ncc(-c2nc(NC3CCN(S(C)(=O)=O)CC3)ncc2C(F)(F)F)s1` [Example 8, 2-[3-Methyl-4-[5-[2-[(1-methylsulfonylpiperidin-4-yl)amino]-5-(trifluoromethyl)pyrimidin-4-yl]-1,3-thiazol-2-yl]phenyl]propan-2-ol], for which the half-maximal inhibitory concentration (IC50) is 100 to 1000 nM in assay [1], greater than 1000 nM in assay [2] and no more than 100 nM in assay [3].
For `CS(=O)(=O)N1CCC(Nc2ncc(C(F)(F)F)c(-c3cnc(-c4ccc(CO)cc4Cl)s3)n2)CC1` [Example 9, [3-Chloro-4-[5-[2-[(1-methylsulfonylpiperidin-4-yl)amino]-5-(trifluoromethyl)pyrimidin-4-yl]-1,3-thiazol-2-yl]phenyl]methanol], the values for the 50% inhibitory concentration (IC50) in assay [1], in assay [2] and in assay [3] were no more than 100 nM, 100 to 1000 nM and no more than 100 nM, respectively.
Consider `Cc1nc(CO)ccc1-c1ncc(-c2nc(NC3CCN(S(C)(=O)=O)CC3)ncc2C(F)(F)F)s1` [Example 10, [6-Methyl-5-[5-[2-[(1-methylsulfonylpiperidin-4-yl)amino]-5-(trifluoromethyl)pyrimidin-4-yl]-1,3-thiazol-2-yl]pyridin-2-yl]methanol], for which the IC50 was no more than 100 nM in assay [1], greater than 1000 nM in assay [2] and no more than 100 nM in assay [3].
In the case of `Cc1ccc(-c2ncc(-c3nc(NC4CCN(S(C)(=O)=O)CC4)ncc3C(F)(F)F)s2)c(C)c1` [Example 11, 4-[2-(2,4-dimethylphenyl)-1,3-thiazol-5-yl]-N-(1-methylsulfonyl-piperidin-4-yl)-5-(trifluoromethyl)pyrimidin-2-amine], the half-inhibitory concentration (IC50) is 100 to 1000 nM in assay [1], greater than 1000 nM in assay [2] and no more than 100 nM in assay [3].
On the same counts, the results for `Cc1cc(CO)ccc1-c1ncc(-c2nc(NC3CCN(S(C)(=O)=O)CC3)ncc2C(F)(F)F)s1` [Example 12, [3-methyl-4-[5-[2-[(1-methylsulfonylpiperidin-4-yl)amino]-5-(trifluoromethyl)pyrimidin-4-yl]-1,3-thiazol-2-yl]phenyl]methanol] are no more than 100 nM, 100 to 1000 nM and no more than 100 nM.
The matching figures for `CNCc1ccc(-c2ncc(-c3nc(NC4CCN(S(C)(=O)=O)CC4)ncc3C(F)(F)F)s2)c(C)c1` [Example 13, 4-[2-[2-Methyl-4-(methylaminomethyl)phenyl]-1,3-thiazol-5-yl]-N-(1-methylsulfonylpiperidin-4-yl)-5-(trifluoromethyl)pyrimidin-2-amine]: no more than 100 nM, 100 to 1000 nM and no more than 100 nM.
The matching figures for `COC(=O)N(C)Cc1ccc(-c2ncc(-c3nc(NC4CCN(S(C)(=O)=O)CC4)ncc3C(F)(F)F)s2)c(C)c1` [Example 14, methyl N-methyl-N-[[3-methyl-4-[5-[2-[(1-methylsulfonylpiperidin-4-yl)amino]-5-(trifluoromethyl)pyrimidin-4-yl]-1,3-thiazol-2-yl]phenyl]methyl]carbamate]: 100 to 1000 nM, greater than 1000 nM and no more than 100 nM.
For the compound `Cc1cc(CO)ccc1-c1nc(C)c(-c2nc(NC3CCN(S(C)(=O)=O)CC3)ncc2F)s1` [Example 15, [4-[5-[5-fluoro-2-[(1-methylsulfonylpiperidin-4-yl)amino]pyrimidin-4-yl]-4-methyl-1,3-thiazol-2-yl]-3-methylphenyl]methanol], the values for the concentration for half-maximal inhibition (IC50) in assay [1], in assay [2] and in assay [3] were 100 to 1000 nM, greater than 1000 nM and no more than 100 nM, respectively.
The matching figures for `Cc1nn(CCO)cc1-c1ncc(-c2nc(NC3CCN(S(C)(=O)=O)CC3)ncc2C(F)(F)F)s1` [Example 17, 2-[3-methyl-4-[5-[2-[(1-methylsulfonylpiperidin-4-yl)amino]-5-(trifluoromethyl)pyrimidin-4-yl]-1,3-thiazol-2-yl]pyrazol-1-yl]ethanol]: 100 to 1000 nM, 100 to 1000 nM and 100 to 1000 nM.
The matching figures for `Cc1ncc(-c2nc(NC3CCN(S(C)(=O)=O)CC3)ncc2C(F)(F)F)s1` [Example 19, N-(1-methylsulfonylpiperidin-4-yl)-4-(2-methyl-1,3-thiazol-5-yl)-5-(trifluoromethyl)pyrimidin-2-amine]: no more than 100 nM, 100 to 1000 nM and no more than 100 nM.
The matching figures for `CS(=O)(=O)N1CCC(Nc2ncc(C(F)(F)F)c(-c3cnc(N)s3)n2)CC1` [Example 20, 5-(2-((1-(methylsulfonyl)piperidin-4-yl)amino)-5-(trifluoromethyl)pyrimidin-4-yl)thiazol-2-amine]: no more than 100 nM, 100 to 1000 nM and no more than 100 nM.
As for `CC(=O)Nc1ncc(-c2nc(NC3CCN(S(C)(=O)=O)CC3)ncc2C(F)(F)F)s1` [Example 21, N-(5-(2-((1-(methylsulfonyl)piperidin-4-yl)amino)-5-(trifluoromethyl)pyrimidin-4-yl)thiazol-2-yl)acetamide], the values for the IC50 in assay [1], in assay [2] and in assay [3] were 100 to 1000 nM, 100 to 1000 nM and no more than 100 nM, respectively.
On to `CC(C)N(C)c1ncc(-c2nc(NC3CCN(S(C)(=O)=O)CC3)ncc2C(F)(F)F)s1` [Example 22, N-isopropyl-N-methyl-5-(2-((1-(methylsulfonyl)piperidin-4-yl)amino)-5-(trifluoromethyl)pyrimidin-4-yl)thiazol-2-amine], for which the 50% inhibitory concentration (IC50) is no more than 100 nM in assay [1], 100 to 1000 nM in assay [2] and no more than 100 nM in assay [3].
Turning to `CS(=O)(=O)N1CCC(Nc2ncc(C(F)(F)F)c(-c3cnc(CO)s3)n2)CC1` [Example 24, [5-[2-[(1-methylsulfonylpiperidin-4-yl)amino]-5-(trifluoromethyl)pyrimidin-4-yl]-1,3-thiazol-2-yl]methanol], the IC50 in assay [1] is 100 to 1000 nM; in assay [2] it was greater than 1000 nM; in assay [3], no more than 100 nM.
